Measured values published in article PMC11366232, “Metabolites profiling of Sapota fruit pulp via a multiplex approach of gas and ultra performance liquid chromatography/mass spectroscopy in relation to its lipase inhibition effect” (PeerJ, 2024).

Assays:
[1] = tested on: T1, yeast α-glucosidase; experiment: p-nitrophenyl alpha-D-glucopyranoside hydrolysis, absorbance at […] nm; assay type: biochemical; conditions: unreliable (a separate IC50 is printed for each sample concentration; this row is the 5 mg/mL one); 5 mM pNPG; 100 mM phosphate pH 6.8; 37 °C; 20 min; enzyme source contradictory (yeast or intestinal)
T1 construct: gene MAL12; commercial native enzyme, Sigma-Aldrich; assay text says yeast, reagent list says intestinal

[2] = target: T2, porcine pancreatic lipase (PL) enzyme type II (Sus scrofa, UniProt P00591); experiment: p-nitrophenyl butyrate hydrolysis, absorbance at […] nm; assay type: biochemical; conditions: unreliable (a separate IC50 is printed for each sample concentration; this row is the 5 mg/mL one); crude enzyme; pNPB 10 mM stock in acetonitrile; Tris-HCl pH 7.4; 37 °C; 5 min preincubation
T2 construct: gene PNLIP
T2 sequence (P00591 1-450): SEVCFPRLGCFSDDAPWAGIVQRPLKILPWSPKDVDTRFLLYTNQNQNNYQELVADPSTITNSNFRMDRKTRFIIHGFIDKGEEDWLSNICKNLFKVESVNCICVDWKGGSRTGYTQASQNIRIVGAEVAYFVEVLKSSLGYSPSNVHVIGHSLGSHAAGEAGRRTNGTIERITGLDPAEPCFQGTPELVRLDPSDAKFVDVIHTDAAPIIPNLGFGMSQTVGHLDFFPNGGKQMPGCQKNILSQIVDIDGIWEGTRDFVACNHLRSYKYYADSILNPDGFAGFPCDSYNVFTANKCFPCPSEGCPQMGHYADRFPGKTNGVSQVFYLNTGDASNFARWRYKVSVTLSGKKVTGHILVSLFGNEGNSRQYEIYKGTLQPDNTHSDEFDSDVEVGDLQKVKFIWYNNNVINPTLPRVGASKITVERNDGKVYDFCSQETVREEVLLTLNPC

Compound	α-Glucosidase inhibitory Assay / Acarbose [1]	Pancreatic Lipase (PL) Inhibition Assay / Orlistat [2]
C[C@H]1O[C@H](O[C@H]2[C@H](O)[C@@H](O)[C@@H](O[C@H]3[C@H](O)[C@@H](O)C(O)O[C@@H]3CO)O[C@@H]2CO)[C@H](O)[C@@H](O)[C@@H]1N[C@H]1C=C(CO)[C@@H](O)[C@H](O)[C@H]1O (some centres unmarked) [Acarbose]	0.16 mg/mL	
CCCCCCCCCCC[C@@H](C[C@@H]1OC(=O)[C@H]1CCCCCC)OC(=O)[C@H](CC(C)C)NC=O [Orlistat]		0.08 mg/mL
